Data published in ChEMBL document CHEMBL5226340, “Chemical Biology of Sortase A Inhibition: A Gateway to Anti-infective Therapeutic Agents” (J Med Chem, 2021).
Values after ≈ are worked out from the molar mass of the structure shown.

Experiments:
[1] = molecular target: T1, Sortase A (Staphylococcus aureus) (UniProt Q9S446); assay: Inhibition of Staphylococcus aureus SrtA expressed in Escherichia coli BL21 (DE3) cells using Abz-LPETG-Dap(Dnp) as substrate assessed as kinact/ki
T1 sequence (whole entry): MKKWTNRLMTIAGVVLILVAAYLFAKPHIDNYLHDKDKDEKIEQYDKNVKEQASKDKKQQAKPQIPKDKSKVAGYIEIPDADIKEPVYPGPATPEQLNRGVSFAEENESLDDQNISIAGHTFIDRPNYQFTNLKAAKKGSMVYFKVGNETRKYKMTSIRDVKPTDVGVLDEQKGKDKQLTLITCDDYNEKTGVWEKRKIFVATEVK

Sortase A [2] = molecular target: T2, Sortase A (Staphylococcus aureus, UniProt Q9S446); assay: Inhibition of Staphylococcus aureus SrtA expressed in Escherichia coli BL21 (DE3) cells using Abz-LPETG-Dap(Dnp) as substrate preincubated for 30 mins followed by substrate addition and further incubated for 30 mins by HPLC analysis
T2 sequence (Q9S446 whole entry): T1 sequence (whole entry)

Sortase A [3] = molecular target: T2, Sortase A; assay: Inhibition of Staphylococcus aureus SrtA using FRET substrate incubated for 1 hr by FRET assay
Sortase A [4] = molecular target: T2, Sortase A; assay: Inhibition of Staphylococcus aureus SrtA using […] as substrate by FRET assay
Staphylococcus aureus [5] = assay: Antibacterial activity against Staphylococcus aureus; type: functional
Sortase A [6] = molecular target: T2, Sortase A; assay: Inhibition of wild type recombinant Staphylococcus aureus ATCC 25904 Sortase A expressed in Escherichia coli BL21 using Dabcyl-QALPETGEE-Edans as substrate incubated for 30 mins followed by substrate addition and measured after 60 mins by FRET assay
Staphylococcus aureus [7] = assay: Inhibition of biofilm formation in Staphylococcus aureus ATCC 6538 incubated for 24 hrs by crystal violet staining based analysis; type: functional, organism-based; settings: ATCC 6538, 24 h
Sortase A [8] = molecular target: T2, Sortase A; assay: Inhibition of C-terminal 6His-tagged recombinant Staphylococcus aureus SrtA with 1 to 59 residues truncated from N-terminus expressed in Escherichia coli BL21 (DE3) using dabcyl-QALPETGEE-edans as substrate preincubated for 1 hr followed by substrate addition and measured for 1 hr by FRET assay
[9] = molecular target: T1, Sortase A (Staphylococcus aureus); assay: Binding affinity to Staphylococcus aureus SrtA assessed as first order rate constant of inactivation
Sortase A [10] = molecular target: T2, Sortase A; assay: Binding affinity to Staphylococcus aureus SrtA assessed as inhibition constant
[11] = molecular target: T1, Sortase A (Staphylococcus aureus); assay: Binding affinity to Staphylococcus aureus SrtA using Abz-DNP as substrate assessed as second order rate constant of inhibition, kinact/ki
Sortase A [12] = molecular target: T2, Sortase A; assay: Inhibition of Staphylococcus aureus SrtA transpeptidation activity
Sortase A [13] = molecular target: T2, Sortase A; assay: Inhibition of Staphylococcus aureus USA 300 SrtA expressed in Escherichia coli BL21 (DE3) cells using Dabcyl-QALPETGEE-Edans as substrate preincubated for 30 mins followed by substrate addition and further incubated for 1 hr by FRET assay
Staphylococcus aureus [14] = assay: Inhibition of biofilm formation in Staphylococcus aureus ATCC 25923 at 100 uM incubated for 24 hrs by safranin staining based analysis relative to control; type: functional
Staphylococcus aureus [15] = assay: Inhibition of biofilm formation in Staphylococcus aureus ATCC 29213 at 100 uM incubated for 24 hrs by safranin staining based analysis relative to control; type: functional
Staphylococcus aureus [16] = assay: Inhibition of biofilm formation in Staphylococcus aureus ATCC 6538 at 100 uM incubated for 24 hrs by safranin staining based analysis relative to control; type: functional

**Q.** With `O=S(=O)(/C=C\C(F)(F)F)c1ccccc1` as the molecule, how does the Ratio [1] read?
**A.** Its Ratio is 90 M⁻¹ min⁻¹.

**Q.** What about the IC50 (Sortase A [2]) of the same molecule?
**A.** The IC50 was 190 µM.

**Q.** For `O=c1ccc2cc(O)c(O)cc2o1` [ESCULETIN], which IC50 (Sortase A [3]) is on record?
**A.** Its IC50 is 36.2 µM.

**Q.** How did the IC50 (Sortase A [4]) turn out when `O=c1cc(-c2ccc(O)cc2)oc2cc(O)c([C@@H]3O[C@H](CO)[C@@H](O)[C@H](O)[C@H]3O)c(O)c12` [ISOVITEXIN] was run?
**A.** Its IC50 is 67 µM.

**Q.** With `COc1ccc(CCc2cc(OC)c(OC)c(OC)c2)cc1O` as the molecule, how does the MIC (Staphylococcus aureus [5]) read?
**A.** The MIC was 1600 µM (≈ 509 µg/mL).

**Q.** What about the IC50 (Sortase A [6]) of the same molecule?
**A.** The IC50 was 65.7 µM.

**Q.** For `CCOC(=O)/C(=N\Nc1c(F)cccc1F)C(=O)c1cc(C)nn1CC`, which MIC (Staphylococcus aureus [5]) is on record?
**A.** The MIC was greater than 200 µM.

**Q.** And the IC50 (Staphylococcus aureus [7])?
**A.** The IC50 was 0.9 µM.

**Q.** What about the IC50 (Sortase A [8]) of the same molecule?
**A.** The IC50 was 75 µM.

**Q.** `O=C1C[C@H]2O[C@H](CCc3ccccc3)C3=C(C(=O)C=CC3=O)[C@H]2O1` was tested. Which Kinact [9] did it give?
**A.** The Kinact was 3.88 10^-2/min.

**Q.** And the Ki (Sortase A [10])?
**A.** Its Ki is 3.57 µM.

**Q.** What about the Ratio [11] of the same molecule?
**A.** The Ratio was 1.09 10^4/M/min.

**Q.** And the kinact/Ki [11]?
**A.** The kinact/Ki was 183 M⁻¹ s⁻¹.

**Q.** Which IC50 (Sortase A [12]) does the source give for `O=C(/C=C/c1ccc(O)cc1)O[C@H]1[C@@H](O)[C@H](O)C[C@](O)(C(=O)O)[C@H]1O` here?
**A.** The IC50 was 161 µM.

**Q.** With `O=C(/C=C/c1ccccc1)c1ccccc1` [CHALCONE] as the molecule, how does the IC50 (Sortase A [13]) read?
**A.** The IC50 was 53.2 µM.

**Q.** How did the inhibition at 100 µM (Staphylococcus aureus [14]) turn out when `CC(=O)/C(=N/Nc1ccccc1)C(=O)O` was run?
**A.** The inhibition at 100 µM was 60%.

**Q.** What about the MIC (Staphylococcus aureus [5]) of the same molecule?
**A.** The MIC was greater than 270 µM.

**Q.** What about the inhibition at 100 µM (Staphylococcus aureus [15]) of the same molecule?
**A.** The inhibition at 100 µM was 60%.

**Q.** And the inhibition at 100 µM (Staphylococcus aureus [16])?
**A.** Its inhibition at 100 µM is 60%.

**Q.** And the IC50 (Sortase A [8])?
**A.** The IC50 was 80 µM.
